A short description of series [1]: solubility of each compound in a solvent. The class given is physicochemical. The conditions noted are these: at 20° C., % on weight. As to the method:
For the six compounds (B) to (H) of Examples 1 to 6 and the compounds (I) and (J) for comparison, the solubility of each compound in a solvent was measured.

Series [2] can be described thus: Dichroic ratio / liquid crystal display element in liquid crystal mixture E-8. The conditions noted are these: liquid crystal E-8. The procedure: Each of the dyestuffs of Examples 12 and 13 was added to 9.8 parts of a liquid crystal mixture of a trade name E-8 made by Merck AG, and the mixture was then heated up to about 60° C. to completely dissolve the dyestuff. After cooling, the solution was poured into a liquid crystal display element, and it was then hermetically sealed.
Each sample was put on a light path of a spectrophotometer, and an absorbance A was measured by applying straight polarized light to the liquid crystal in parallel with the arrangement of the liquid crystal and an absorbance A' was measured by applying straight polarized light to the liquid crystal at a right angle to the arrangement of the liquid crystal. By the use of the thus measured absorbances A and A', a dichroic ratio was calculated in accordance with the following formula: […]
Furthermore, as comparative preparation examples, otherwise the same liquid crystals as mentioned above were prepared from compounds for comparison represented by the following formulae (K) and (L).

Series [3] in a line: maximum absorption wavelength. The series is classed as physicochemical. The conditions noted are these: for λmax: solvent not given.
The nature of series [4]: Resin coloring suitability test: heat resistance. The class given is physicochemical. The conditions noted are these: 0.02 pts. wt., 300° C./10 min.; for Heat resistance (H), ABS: Acrylonitrile/butadiene/styrene; for Heat resistance (H), PC: Polycarbonate; for Heat resistance (H), PET: Polyethylene glycol terephthalate; for Heat resistance (H), PS: Polystyrene. As to the method:
For the compounds (B, C, D, F, G and H), a resin coloring suitability test was conducted.
H: Heat resistance, 300° C./10 min., Gray scale judgement
Heat resistance and bleed resistance: […]
judgement, and the fifth grade or more was denoted by .circleincircle. an
the third to fifth grades by .largecircle..

In the case of `CCCCOC(=O)c1ccc2c(c1)C(=O)C(c1nc3ccc(C)cc3cc1O)C2=O` (stereo not drawn) [J, reference compound], in series [1], the “Solubility in Acetone” value amounted to 0.13%, the “Solubility in DMF” value is 0.78%, the “Solubility in THF” value is given as 0.34% and the “Solubility in Toluene” value is on record as 0.28%. Moreover, in series [2], the “dissolution in the liquid crystal” value is recorded as “not completely dissolved”.

`CCCCCCCCOC(=O)c1ccc2c(c1)C(=O)C(c1nc3ccc(CCCC)cc3cc1O)C2=O` (stereo not drawn) [I, reference compound]: in series [1], the “Solubility in Acetone” value was determined as 0.33%, the “Solubility in DMF” value is recorded as 1.20%, the “Solubility in THF” value is given as 0.98% and the “Solubility in Toluene” value stood at 0.51%. In series [2], the “dissolution in the liquid crystal” value was “not completely dissolved”.

The compound `Cc1ccc2oc(-c3ccc(-c4ccc(N5C(=O)c6cc7c(cc6C5=O)C(=O)C(c5nc6ccc(C(C)C)cc6cc5O)C7=O)cc4)cc3)nc2c1` [Example 13] registered a λmax in series [3] (Table 1) of 455 nm.

As for `CCCCCCCCOc1ccc(-c2ccc(N3C(=O)c4cc5c(cc4C3=O)C(=O)C(c3nc4ccc(C(C)C)cc4cc3O)C5=O)cc2)cc1` [Example 12], the λmax in series [3] (Table 1) stood at 455 nm.

`CCCCCCNC(=O)c1ccc2c(c1)C(=O)C(c1nc3ccc(C(C)C)cc3c(Br)c1O)C2=O` (stereo not drawn) [Example 9] came in with a λmax in series [3] (Table 1) of 450 nm.

In series [3] (Table 5), `CCC1(COC(=O)C(C)C)COC(c2ccc3c(c2)C(=O)C(c2nc4ccc(C5CCCCC5)cc4cc2O)C3=O)=N1` (stereo not drawn) [Example 19] showed a λmax of 450 nm.

The compound `CCC1(COC(C)=O)COC(c2ccc3c(c2)C(=O)C(c2nc4ccc(C(C)C)cc4cc2O)C3=O)=N1` (stereo not drawn) [Example 20] displayed a λmax in series [3] (Table 5) of 450 nm.

As to `CC1CN=C(c2ccc3c(c2)C(=O)C(c2nc4ccccc4cc2O)C3=O)O1` (stereo not drawn) [B], in series [1], the “Solubility in Acetone” value is reported as 3.48%, the “Solubility in DMF” value stood at 6.91%, the “Solubility in THF” value is on record as 6.50% and the “Solubility in Toluene” value amounted to 3.98%. Also, in series [3], the “maximum absorption wavelength in toluene” value came out at 448 nm. In addition, in series [4], the “Heat resistance (H), ABS” value is “.largecircle. (the third to fifth grades)”; the “Heat resistance (H), PC” value is recorded as “.circleincircle. (the fifth grade or more)”; the “Heat resistance (H), PET” value is “.largecircle. (the third to fifth grades)”; the “Heat resistance (H), PS” value is recorded as “.circleincircle. (the fifth grade or more)”.

`CCCCCCCCN1CCN=C1c1ccc2c(c1)C(=O)C(c1nc3ccccc3c(Sc3ccc(C(C)(C)C)cc3)c1O)C2=O` (stereo not drawn) [Example 14]: the λmax in series [3] (Table 5) is 450 nm.

`CC(=O)OCC1(COC(C)=O)COC(c2ccc3c(c2)C(=O)C(c2nc4ccc(C(C)C)cc4cc2O)C3=O)=N1` (stereo not drawn) [Example 21]: the λmax in series [3] (Table 5) is 450 nm.

The compound `CCCCNC(=O)c1ccc2c(c1)C(=O)C(c1nc3ccc(C(C)C)cc3cc1O)C2=O` (stereo not drawn) [Example 7] yielded a λmax in series [3] (Table 1) of 450 nm.

On to `CCCCN(CCCC)C(=O)c1ccc2c(c1)C(=O)C(c1nc3ccc(C(C)C)cc3cc1O)C2=O` (stereo not drawn) [F], for which, in series [1], the “Solubility in Acetone” value is given as 7.10%, the “Solubility in DMF” value turned out to be 13.49%, the “Solubility in THF” value was 12.63% and the “Solubility in Toluene” value was found to be 10.52%. Besides, in series [3], the “maximum absorption wavelength in toluene” value is 450 nm. Besides, in series [4], the “Heat resistance (H), ABS” value is “.largecircle. (the third to fifth grades)”; the “Heat resistance (H), PC” value is on record as “.circleincircle. (the fifth grade or more)”; the “Heat resistance (H), PET” value is listed as “.circleincircle. (the fifth grade or more)”; the “Heat resistance (H), PS” value was “.circleincircle. (the fifth grade or more)”.

Regarding `CCC1(CO)COC(c2ccc3c(c2)C(=O)C(c2nc4ccc(C(C)C)cc4cc2O)C3=O)=N1` (stereo not drawn) [G], in series [1], the “Solubility in Acetone” value is 3.84%, the “Solubility in DMF” value stood at 6.91%, the “Solubility in THF” value is 6.50% and the “Solubility in Toluene” value is reported as 4.01%. Moreover, the “maximum absorption wavelength in toluene” value in series [3] was 450 nm. In series [4], the “Heat resistance (H), ABS” value is listed as “.largecircle. (the third to fifth grades)”; the “Heat resistance (H), PC” value is “.circleincircle. (the fifth grade or more)”; the “Heat resistance (H), PET” value was “.circleincircle. (the fifth grade or more)”; the “Heat resistance (H), PS” value was “.circleincircle. (the fifth grade or more)”.

`CCC1(COC(=O)C(C)C)COC(c2ccc3c(c2)C(=O)C(c2nc4ccc(C(C)C)cc4cc2O)C3=O)=N1` (stereo not drawn) [H]: in series [1], the “Solubility in Acetone” value was found to be 5.31%, the “Solubility in DMF” value was 12.64%, the “Solubility in THF” value was found to be 10.38% and the “Solubility in Toluene” value was determined as 8.85%. In addition, the “maximum absorption wavelength in toluene” value in series [3] came out at 450 nm. Moreover, in series [4], the “Heat resistance (H), ABS” value was “.largecircle. (the third to fifth grades)”; the “Heat resistance (H), PC” value is reported as “.circleincircle. (the fifth grade or more)”; the “Heat resistance (H), PET” value is given as “.circleincircle. (the fifth grade or more)”; the “Heat resistance (H), PS” value is reported as “.circleincircle. (the fifth grade or more)”.

In series [3] (Table 1), `CCCN(CCC)C(=O)c1ccc2c(c1)C(=O)C(c1nc3ccc(C(C)C)cc3cc1O)C2=O` (stereo not drawn) [Example 11] registered a λmax of 450 nm.

As for `CC(=O)OCC1(COC(C)=O)COC(c2ccc3c(c2)C(=O)C(c2nc4ccccc4cc2O)C3=O)=N1` (stereo not drawn) [Example 16], the λmax in series [3] (Table 5) was found to be 450 nm.

For the compound `CC(C)c1ccc2nc(C3C(=O)c4ccccc4C3=O)c(O)cc2c1` [D], in series [1], the “Solubility in Acetone” value is reported as 1.58%, the “Solubility in DMF” value is on record as 3.56%, the “Solubility in THF” value worked out at 2.28% and the “Solubility in Toluene” value is listed as 1.79%. Also, the “maximum absorption wavelength in toluene” value in series [3] came to 450 nm. In addition, in series [4], the “Heat resistance (H), ABS” value was “.largecircle. (the third to fifth grades)”; the “Heat resistance (H), PC” value is “.circleincircle. (the fifth grade or more)”; the “Heat resistance (H), PET” value is recorded as “.largecircle. (the third to fifth grades)”; the “Heat resistance (H), PS” value is “.circleincircle. (the fifth grade or more)”.

As to `CC(C)c1nnc(-c2ccc3c(c2)C(=O)C(c2nc4ccccc4cc2O)C3=O)o1` (stereo not drawn) [C], in series [1], the “Solubility in Acetone” value was 3.95%, the “Solubility in DMF” value is listed as 7.03%, the “Solubility in THF” value was found to be 6.55% and the “Solubility in Toluene” value is recorded as 4.22%. The “maximum absorption wavelength in toluene” value in series [3] is recorded as 450 nm. For the same compound, in series [4], the “Heat resistance (H), ABS” value is “.largecircle. (the third to fifth grades)”; the “Heat resistance (H), PC” value is listed as “.circleincircle. (the fifth grade or more)”; the “Heat resistance (H), PET” value is “.largecircle. (the third to fifth grades)”; the “Heat resistance (H), PS” value was “.circleincircle. (the fifth grade or more)”.

`CC(C)c1ccc2nc(C3C(=O)c4ccc(-c5nnc(C(C)C)s5)cc4C3=O)c(O)cc2c1` (stereo not drawn) [Example 15] returned a λmax in series [3] (Table 5) of 450 nm.

As for `CCCCSc1c(O)c(C2C(=O)c3ccccc3C2=O)nc2ccc(C(C)C)cc12` [Example 10], in series [3] (Table 1), the λmax came to 450 nm.

In series [3] (Table 5), `CCCCCCC1(CC)COC(c2ccc3c(c2)C(=O)C(c2nc4ccccc4cc2O)C3=O)=N1` (stereo not drawn) [Example 17] showed a λmax of 450 nm.

In series [3] (Table 1), `CC(C)NC(=O)c1cc2c(cc1C(=O)NC(C)C)C(=O)C(c1nc3ccc(C(C)C)cc3cc1O)C2=O` [Example 8] registered a λmax of 460 nm.
